One test has as its target hA2a/CHO (Homo sapiens (Human), UniProt P29274). The experiment in a line: cAMP inhibition assay in hA2a/CHO cells, 10 μM adenosine.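 Note: compounds added to cells 30 min ahead of adenosine, then a further 30 min at 37 °C with adenosine before cAMP detection.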 The class given is cell-based. As to conditions: read-out: cAMP & FLIPR IC50 (nM) hA2a.
The target in test [1] is hADORA1/CHO (hA1 expressing) cells (Homo sapiens (Human), UniProt P30542). The test can be described thus: cell-based. As to conditions: FLIPR inhibition, 10 μM adenosine, read-out: cAMP & FLIPR IC50 (nM) hA1.
Procedure: hADORA1/CHO (hA1 expressing) cells (Genscript) were plated at 1×10^4 cells/well into 384-well polystyrene plates one day before starting the experiment. On the day of experiment, the supernatant was discard and replaced with 40 μL of dye (FLIPR calcium 5 Assay Kit) per well and the plates were incubated for 60 mins at 37° C. plus 5% CO2. Then testing compounds were added at different concentrations for FLIPR™ inhibition assay. After a 400s incubation with compound, 10 μM adenosine was added into the cells, and the signal was captured by FLIPR.

This passage reports IC50 results from patent publication US10898481B2 (priority 2018, dated 2021).

Chain of hADORA1/CHO (hA1 expressing) cells (P30542 whole entry): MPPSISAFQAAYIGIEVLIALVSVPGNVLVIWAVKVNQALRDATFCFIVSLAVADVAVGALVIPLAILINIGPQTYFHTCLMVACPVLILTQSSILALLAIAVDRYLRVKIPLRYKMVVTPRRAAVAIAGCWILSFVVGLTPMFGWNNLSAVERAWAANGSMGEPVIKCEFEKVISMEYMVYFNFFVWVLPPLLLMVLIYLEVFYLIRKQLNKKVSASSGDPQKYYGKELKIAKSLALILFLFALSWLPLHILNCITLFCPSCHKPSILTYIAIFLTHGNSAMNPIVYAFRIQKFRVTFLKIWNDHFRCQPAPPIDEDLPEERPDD
Chain of hA2a/CHO (P29274 whole entry): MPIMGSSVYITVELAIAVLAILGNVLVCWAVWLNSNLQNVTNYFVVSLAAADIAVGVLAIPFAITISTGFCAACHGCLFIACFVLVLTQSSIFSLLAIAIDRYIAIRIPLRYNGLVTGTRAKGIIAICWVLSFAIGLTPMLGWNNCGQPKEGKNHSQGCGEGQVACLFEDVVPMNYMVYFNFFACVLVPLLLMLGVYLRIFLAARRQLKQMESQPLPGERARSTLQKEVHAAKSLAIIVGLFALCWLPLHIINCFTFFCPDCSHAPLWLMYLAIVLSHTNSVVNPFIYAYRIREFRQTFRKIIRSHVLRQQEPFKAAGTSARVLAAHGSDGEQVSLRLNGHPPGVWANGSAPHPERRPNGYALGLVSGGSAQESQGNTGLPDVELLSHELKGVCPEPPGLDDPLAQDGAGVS
Procedure for hA2a/CHO: hA2a/CHO, hA2b/CHO, hA3/CHO and mA2a/CHO (Genscript) were plated at 5×10^3 cells/well into 384-well polystyrene plates at the day of experiment. Compounds were pre-incubated with cells for 30 min at 37° C., 5% CO2. Then 10 μM adenosine was added to the cells and incubated for 30 min at 37° C., 5% CO2. Detection reagent (CISBIO) was added and the plates were incubated for 60 min at room temperature. The signal was captured by Envision.

By IC50 is commonly meant the concentration needed to halve the response being measured. On to `Cc1cnc2ccc(-c3nc(C(=O)NC(C)C4CCCO4)c(N)nc3-c3ncco3)cn12` (single isomer, unassigned; isomer 1) [Example 266, 3-amino-6-(3-methylimidazo[1,2-a]pyridin-6-yl)-5-(oxazol-2-yl)-N-(1-(tetrahydrofuran-2-yl)ethyl)pyrazine-2-carboxamide (isomer 1)], for which the IC50 on hA2a/CHO is 7.6 nM; in test [1], above 10000 nM.

Consider `Cc1cnc2ccc(-c3nc(C(=O)NCC4CCN(C)C4=O)c(N)nc3-c3ccc(F)cc3)cn12` (single isomer, unassigned; isomer 1) [Example 267, 3-amino-5-(4-fluorophenyl)-N-((1-methyl-2-oxopyrrolidin-3-yl)methyl)-6-(3-methylimidazo[1,2-a]pyridin-6-yl) pyrazine-2-carboxamide (isomer 1)], for which the IC50 stood at 0.9 nM at hA2a/CHO and 2.8 nM in test [1].

As for `Cc1cnc2ccc(-c3nc(C(=O)NC[C@H]4CC(C)(C)CN4C)c(N)nc3-c3ncco3)cn12` (single isomer, unassigned; isomer 2) [Example 230, 3-amino-6-(3-methylimidazo[1,2-a]pyridin-6-yl)-5-(oxazol-2-yl)-N-((1,4,4-trimethylpyrrolidin-2-yl)methyl) pyrazine-2-carboxamide (isomer 2)], the IC50 at hA2a/CHO stood at 15 nM; in test [1] it was 6000 nM.

Regarding `Cc1cnc2ccc(-c3nc(C(=O)NCC4CCCN(C)C4=O)c(N)nc3-c3ncco3)cn12` (single isomer, unassigned; isomer 2) [Example 254, 3-amino-N-((1-methyl-2-oxopiperidin-3-yl)methyl)-6-(3-methylimidazo[1,2-a]pyridin-6-yl)-5-(oxazol-2-yl) pyrazine-2-carboxamide (isomer 2)], the IC50 was determined as 0.7 nM on hA2a/CHO and 99 nM in test [1].

For `Cc1cnc2ccc(-c3nc(C(=O)NCC4CCN(C)C4=O)c(N)nc3-c3ccc(F)cc3)cn12` (single isomer, unassigned; isomer 2) [Example 256, 3-amino-5-(4-fluorophenyl)-N-((1-methyl-2-oxopyrrolidin-3-yl)methyl)-6-(3-methylimidazo[1,2-a]pyridin-6-yl) pyrazine-2-carboxamide (isomer 2)], the results for the IC50 (at hA2a/CHO; in test [1]) were 1.8 nM and 34 nM, respectively.

For `Cc1cnc2ccc(-c3nc(C(=O)NC(C)C4CCCO4)c(N)nc3-c3ncco3)cn12` (single isomer, unassigned; isomer 2) [Example 262, 3-amino-6-(3-methylimidazo[1,2-a]pyridin-6-yl)-5-(oxazol-2-yl)-N-(1-(tetrahydrofuran-2-yl)ethyl)pyrazine-2-carboxamide (isomer 2)], the IC50 at hA2a/CHO is 12 nM; in test [1], 11600 nM.

Regarding `Cc1cnc2ccc(-c3nc(C(=O)NCC(C4CC4)N(C)C)c(N)nc3-c3ncco3)cn12` (single isomer, unassigned; isomer 2) [Example 269, 3-amino-N-(2-cyclopropyl-2-(dimethylamino)ethyl)-6-(3-methylimidazo[1,2-a]pyridin-6-yl)-5-(oxazol-2-yl) pyrazine-2-carboxamide (isomer 2)], the IC50 on hA2a/CHO was 37 nM; in test [1], above 10000 nM.

For `Cc1cnc2ccc(-c3nc(C(=O)NCC4CC(C)(C)O4)c(N)nc3-c3ncco3)cn12` (single isomer, unassigned; isomer 2) [Example 270, 3-amino-N-((4,4-dimethyloxetan-2-yl)methyl)-6-(3-methylimidazo[1,2-a]pyridin-6-yl)-5-(oxazol-2-yl)pyrazine-2-carboxamide (isomer 2)], the IC50 worked out at 7.4 nM at hA2a/CHO and 300 nM in test [1].

As for `Cc1cnc2ccc(-c3nc(C(=O)NC(C)C4CCCO4)c(N)nc3-c3ncco3)cn12` (single isomer, unassigned; isomer 3) [Example 274, 3-amino-6-(3-methylimidazo[1,2-a]pyridin-6-yl)-5-(oxazol-2-yl)-N-(1-(tetrahydrofuran-2-yl)ethyl)pyrazine-2-carboxamide (isomer 3)], the values for the IC50 (on hA2a/CHO; in test [1]) were 0.9 nM and 275 nM, respectively.

As for `Cc1cnc2ccc(-c3nc(C(=O)NC(C)C4CCCO4)c(N)nc3-c3ncco3)cn12` (single isomer, unassigned; isomer 4) [Example 258, 3-amino-6-(3-methylimidazo[1,2-a]pyridin-6-yl)-5-(oxazol-2-yl)-N-(1-(tetrahydrofuran-2-yl)ethyl)pyrazine-2-carboxamide (isomer 4)], the IC50 on hA2a/CHO amounted to 8.1 nM; in test [1], 2510 nM.

Take `Cc1cnc2ccc(-c3nc(CNC(=O)C4CCCO4)c(N)nc3-c3ccc(F)cc3)cn12` (stereo in doubt) [Cmpd. 268, (2S)—N-[[3-amino-5-(4-fluorophenyl)-6-[3-methyl-imidazo-[1,2-a]pyridin-6-yl]pyrazin-2-yl]methyl]oxolane-2-carboxamide]: the IC50 at hA2a/CHO came out at 0.2 nM; in test [1], 6.7 nM.

Consider `Cc1cnc2ccc(-c3nc(C(=O)NCc4cccc(N5CC(CN(C)C)C5)n4)c(N)nc3-c3ncco3)cn12` [Cmpd. 261, 3-amino-N-((6-(3-((dimethylamino)methyl)azetidin-1-yl)pyridin-2-yl)methyl)-6-(3-methylimidazo[1,2-a]pyridin-6-yl)-5-(oxazol-2-yl)pyrazine-2-carboxamide], for which the IC50 at hA2a/CHO came out at 0.4 nM; in test [1] it was 158 nM.

Turning to `Cc1cnc2ccc(-c3nc(C(=O)NCc4cccc(N5C[C@H]6CC[C@@H](C5)N6C)n4)c(N)nc3-c3ncco3)cn12` [Example 173, 3-amino-N-((6-((1R,5S)-8-methyl-3,8-diazabicyclo[3.2.1]octan-3-yl)pyridin-2-yl)methyl)-6-(3-methylimidazo[1,2-a]pyridin-6-yl)-5-(oxazol-2-yl)pyrazine-2-carboxamide], the IC50 worked out at 5.1 nM at hA2a/CHO and 6500 nM in test [1].

Consider `Cc1cnc2ccc(-c3nc(C(=O)NCc4cccc(C5CCN(C)CC5)n4)c(N)nc3-c3ncco3)cn12` [Example 176, 3-amino-6-(3-methylimidazo[1,2-a]pyridin-6-yl)-N-((6-(1-methylpiperidin-4-yl)pyridin-2-yl)methyl)-5-(oxazol-2-yl) pyrazine-2-carboxamide], for which the IC50 on hA2a/CHO worked out at 11 nM; in test [1] it was 599 nM.

For the molecule `Cc1cnc2ccc(-c3nc(C(=O)NCCn4ccccc4=O)c(N)nc3-c3ncco3)cn12` [Example 237, 3-amino-6-(3-methylimidazo[1,2-a]pyridin-6-yl)-5-(oxazol-2-yl)-N-(2-(2-oxopyridin-1(2H)-yl)ethyl)pyrazine-2-carboxamide], the IC50 on hA2a/CHO is 5.1 nM; in test [1], 71 nM.

Take `Cc1cnc2ccc(-c3nc(C(=O)NCc4c(F)cccc4F)c(N)nc3N3CCOCC3)cn12` [Example 238, 3-amino-N-(2,6-difluorobenzyl)-6-(3-methylimidazo[1,2-a]pyridin-6-yl)-5-morpholinopyrazine-2-carboxamide]: the IC50 is 0.5 nM on hA2a/CHO and 401 nM in test [1].

Take `Cc1cnc2ccc(-c3nc(C(=O)NCC4CCOCC4)c(N)nc3-c3ncco3)cn12` [Example 239, 3-amino-6-(3-methylimidazo[1,2-a]pyridin-6-yl)-5-(oxazol-2-yl)-N-((tetrahydro-2H-pyran-4-yl)methyl) pyrazine-2-carboxamide]: the IC50 at hA2a/CHO is 4.8 nM; in test [1], 2960 nM.

`Cc1cnc2ccc(-c3nc(C(=O)N[C@@H]4CCOC4)c(N)nc3-c3ncco3)cn12` [Example 255, (R)-3-amino-6-(3-methylimidazo [1,2-a]pyridin-6-yl)-5-(oxazol-2-yl)-N-(tetrahydrofuran-3-yl)pyrazine-2-carboxamide]: the IC50 on hA2a/CHO worked out at 20 nM; in test [1], 6850 nM.

In the case of `Cc1cnc2ccc(-c3nc(CNC(=O)[C@H]4CCOC4)c(N)nc3-c3ccc(F)cc3)cn12` [Example 264, (S)-N-((3-amino-5-(4-fluorophenyl)-6-(3-methylimidazo[1,2-a]pyridin-6-yl)pyrazin-2-yl)methyl)tetrahydrofuran-3-carboxamide], the figures for the IC50 (on hA2a/CHO; in test [1]) were 25 nM and 84 nM, respectively.

Turning to `Cc1cnc2ccc(-c3nc(CNC(=O)[C@@H]4CCCO4)c(N)nc3-c3ccc(F)cc3)cn12` [Example 265, (S)-N-((3-amino-5-(4-fluorophenyl)-6-(3-methylimidazo[1,2-a]pyridin-6-yl)pyrazin-2-yl)methyl)tetrahydrofuran-2-carboxamide], the IC50 on hA2a/CHO turned out to be 7.3 nM; in test [1], 26 nM.

Turning to `Cc1cnc2ccc(-c3nc(C(=O)N[C@H]4C[C@H](N(C)C)C4)c(N)nc3-c3ncco3)cn12` [Example 271-2, Trans-3-amino-N-(3-(dimethylamino)cyclobutyl)-6-(3-methylimidazo[1,2-a]pyridin-6-yl)-5-(oxazol-2-yl)pyrazine-2-carboxamide], the IC50 came out at 23 nM at hA2a/CHO and 865 nM in test [1].

`Cc1cnc2ccc(-c3nc(CNC(=O)[C@@H]4CCOC4)c(N)nc3-c3ccc(F)cc3)cn12` [Example 275, (R)-N-((3-amino-5-(4-fluorophenyl)-6-(3-methylimidazo[1,2-a]pyridin-6-yl)pyrazin-2-yl)methyl)tetrahydrofuran-3-carboxamide]: the results for the IC50 (at hA2a/CHO; in test [1]) were 6.1 nM and 39 nM, respectively.

As for `Cc1cnc2ccc(-c3nc(C(=O)NCc4cccc(N5CCOCC5)n4)c(N)nc3-c3ncco3)cn12` [Example 276, 3-amino-6-[3-methylimidazo[1,2-a]pyridin-6-yl]-N-[[6-(morpholin-4-yl)pyridin-2-yl]methyl]-5-(1,3-oxazol-2-yl)pyrazine-2-carboxamide], the results for the IC50 (at hA2a/CHO; in test [1]) were 3.1 nM and 3070 nM, respectively.

As to `Cc1cnc2ccc(-c3nc(C(=O)N[C@H]4CCOC4)c(N)nc3-c3ncco3)cn12` [Example 277, (S)-3-amino-6-(3-methylimidazo[1,2-a]pyridin-6-yl)-5-(oxazol-2-yl)-N-(tetrahydrofuran-3-yl)pyrazine-2-carboxamide], the values for the IC50 (on hA2a/CHO; in test [1]) were 12 nM and 6560 nM, respectively.
